From publication PMC2829070 (PLoS Pathogens, 2010)
pIC50: −log10 of the molar value. “And” between values parts separate entries of the source, which are not always exact repeats. Identical values can stand only once.

How the values were obtained:
[1] = tested on: HN30408cl7 (H5N1); format: in vivo, BALB/c mice; conditions: 21 days
[2] = tested on: Ind3006 (H5N1); format: in vivo, BALB/c mice; conditions: 21 days
[3] = tested on: HN30408cl7 (H5N1); parameters: species or system BALB/c mice; Virus titers in Lungs, Day 6 / Virus titers in Lungs, Day 9 / Virus titers in Brain, Day 9: unit not given here; conditions: mouse, in vivo
[4] = tested on: Ind3006 (H5N1); parameters: species or system BALB/c mice; Virus titers in Lungs, Day 6 / Virus titers in Brain, Day 6: unit not given here; conditions: mouse, in vivo
[5] = tested on: HN30408cl7 (H5N1); parameters: species or system BALB/c mice; conditions: mouse, in vivo
[6] = tested on: HN30408cl7 (H5N1); parameters: species or system BALB/c mice; Virus titer in Lungs, Day 3 / Virus titer in Lungs, Day 6: unit not given here; conditions: mouse, in vivo
[7] = target: NA of Ind3006 (A/Indonesia/UT3006/05, H5N1) (Influenza A virus, UniProt I6YWY9); assay: biochemical
[8] = tested on: NA of A/New Caledonia/20/99 (H1N1); format: binding, influenza A virus (H1N1)
[9] = tested on: NA of A/Panama/2007/99 (H3N2); format: binding, influenza A virus (H3N2)
[10] = tested on: NA of B/Mie/1/93; format: binding, influenza B virus

Compound | mice protected from lethal infection [1] | mice protected from lethal infection [2] | Virus titers in Brain, Day 3 [3] | Virus titers in Brain, Day 3 [4] | Virus titers in Brain, Day 6 [4] | Virus titers in Brain, Day 9 [4] | Virus titers in Lungs, Day 6 [4] | Virus titers in Lungs, Day 9 [4] | prophylactic efficacy (survival) [5] | Virus titer in Brain, Day 3 [6] | pIC50 [7] | Slope of the dissociation curve [8] | Slope of the dissociation curve [9] | Slope of the dissociation curve [10] | also measured
[H]/N=C(\N)N[C@H]1C=C(C(=O)O)O[C@@H]([C@H](OC)[C@H](O)COC(=O)CCCCCCC)[C@@H]1NC(C)=O [CS-8958] | 90% | 70% | <1.6 | <1.6 | <1.6 | <1.6 | 7.2±0.1 and 4.5±1.4 | <1.7 | limited | <1.6 | – | – | – | – | Virus titers in Brain, Day 6 [3]: 2.0±0.3 and <1.6; protection from the lethal infection (prophylaxis) [5]: significantly protected
CC(=O)N[C@H]1[C@H]([C@H](O)[C@H](O)CO)OC(C(=O)O)=C[C@@H]1N=C(N)N [Zanamivir] | – | – | – | – | – | – | – | – | – | – | 10.15 | 140.10 | 2.10 | 184.10 | –
CCC(CC)O[C@@H]1C=C(C(=O)O)C[C@H](N)[C@H]1NC(C)=O [Oseltamivir carboxylate] | – | – | – | – | – | – | – | – | – | – | 8.00 | 173.34 | 6.97 | 381.21 | recovery of NA activity [10]: almost fully recovered
Peramivir | – | – | – | – | – | – | – | – | – | – | – | 43.10 | 0.19 | 180.66 | Slope difference [8]: -456.52; Slope difference [9]: -48.81; Slope difference [10]: -773.42
CCOC(=O)C1=C[C@@H](OC(CC)CC)[C@H](NC(C)=O)[C@@H](N)C1 [Oseltamivir phosphate] | less than half | less than half | <1.6 | <1.6 | 3.1±0.3 and 2.6±0.1 and 3.2±1.2 and 3.3±0.9 | <1.6 | 7.5±0.2 and 7.4±0.2 and 7.4±0.1 and 7.2±0.1 | <1.7 | limited | <1.6 | – | – | – | – | mice saved from lethal infection [1]: 90%; mice saved from lethal infection [2]: 50%; Virus titers in Brain, Day 9 [3]: 4.8 and 4.7±0.4 and 3.7 and 5.1; Virus titers in Lungs, Day 3 [3]: 6.0±0.1 and 5.0±0.6 and 6.2±0.2; Virus titers in Lungs, Day 6 [3]: 5.2±0.1 and 5.5±0.4 and 3.8±0.5 and 6.4±0.6; Virus titers in Lungs, Day 9 [3]: 4.9±1.8 and 4.7±0.6 and 4.7±1.4 and 6.1; Virus titers in Lungs, Day 3 [4]: 7.5±0.1 and 7.2±0.1 and 7.1±0.2; Virus titer in Brain, Day 6 [6]: 2.6 and <1.6; Virus titer in Lungs, Day 3 [6]: 5.5±0.7 and 4.3±1.9 and 3.2±2.9 and 5.8±0.8; Virus titer in Lungs, Day 6 [6]: 5.6±0.4 and 6.1±0.2 and 6.0±0.0 and 6.0±0.4
